Blank lines part the entries; values can stand above or below the compound they belong to.
What was measured:
[1] = Cytotoxicity against human HuH7 cells; format: cell-based; details: Huh-7 cells
Hepatitis C virus [2] = assay: Antiviral activity against Hepatitis C virus genotype 1b replicon infected in Lunet cells by luciferase reporter gene assay; format: functional, Hepacivirus hominis
CCRF-CEM [3] = assay: Cytotoxicity against human CEM cells up to 100 uM after 8 days by MTT assay; format: cell-based; details: 192 h
Huh-7 [4] = assay: Prodrug activation in human HuH7 cells infected with HCV genotype 1b assessed as Tmax of beta-D-2'-deoxy-2'-alpha-fluoro-2'-beta-C-methylguanosine triphosphate level at 100 uM; format: cell-based; details: huh-7, 100 µM
Huh-7 [5] = assay: Cytotoxicity against human HuH7 cells up to 100 uM after 8 days by MTT assay; format: cell-based; details: huh-7, 192 h
Rattus norvegicus [6] = assay: Prodrug activation in rat liver assessed as beta-D-2'-deoxy-2'-alpha-fluoro-2'-beta-C-methylguanosine monophosphate level at 40 mg/kg, po administered QD as repeated dose measured at 4 hrs post-dosing on day 8; format: organism-based; set-up: dose 40 mg/kg, route oral; details: in vivo
[7] = Half life in simulated intestinal fluid; format: physicochemical
[8] = Tmax in rat at 40 mg/kg, po administered QD measured after 1 day; format: ADME, organism-based; set-up: dose 40 mg/kg, route oral; details: in vivo
Rattus norvegicus [9] = assay: Prodrug activation in rat liver assessed as beta-D-2'-deoxy-2'-alpha-fluoro-2'-beta-C-methylguanosine diphosphate level at 40 mg/kg, po administered QD as repeated dose measured at 4 hrs post-dosing on day 8; format: organism-based; set-up: dose 40 mg/kg, route oral; details: in vivo
CCRF-CEM [10] = assay: Mitochondrial toxicity against human CEM cells assessed as decrease in ribosomal DNA up to 100 uM after 14 days by RT-PCR analysis; format: cell-based; details: 336 h
HepG2 [11] = assay: Mitochondrial toxicity against human HepG2 cells assessed as decrease in mitochondrial COX2 DNA up to 100 uM after 14 days by RT-PCR analysis; format: cell-based; details: hepg2, 336 h
Hepatitis C virus [12] = assay: Antiviral activity against Hepatitis C virus expressing NS5B S282T mutant by cell-based replicon assay; format: functional, Hepacivirus hominis
Hepatocyte = assay: Prodrug activation in human primary hepatocytes assessed as assessed as Tmax of beta-D-2'-deoxy-2'-alpha-fluoro-2'-beta-C-methylguanosine triphosphate level at 100 uM; format: cell-based, Liver
[13] = Cmax in rat at 40 mg/kg, po administered QD measured after 7 days; format: ADME, organism-based; set-up: dose 40 mg/kg, route oral; details: in vivo
Rattus norvegicus [14] = assay: Tlast in rat at 40 mg/kg, po administered QD measured after 1 day; format: ADME, organism-based; set-up: dose 40 mg/kg, route oral; details: in vivo, 24 h
[15] = AUC (infinity) in rat at 40 mg/kg, po administered QD measured after 1 day; format: ADME, organism-based; set-up: time infinity, dose 40 mg/kg, route oral; details: plasma
[16] = Half life in rat at 40 mg/kg, po administered QD measured after 1 day; format: ADME, organism-based; set-up: dose 40 mg/kg, route oral; details: in vivo
[17] = AUClast in rat at 40 mg/kg, po administered QD measured after 7 days; format: ADME, organism-based; set-up: dose 40 mg/kg, route oral; details: plasma
[18] = Half life in simulated gastric fluid; format: physicochemical
[19] = Half life in human liver S9 fraction; format: ADME, subcellular
Hepatitis C virus [20] = assay: Antiviral activity against Hepatitis C virus genotype 1b replicon infected in clone A cells assessed as inhibition of viral replication by RT-PCR analysis; format: functional, Hepacivirus hominis
[21] = AUClast in rat at 40 mg/kg, po administered QD measured after 1 day; format: ADME, organism-based; set-up: dose 40 mg/kg, route oral; details: plasma
Rattus norvegicus [22] = assay: Prodrug activation in rat liver assessed as total nucleotide level at 40 mg/kg, po administered QD as repeated dose measured at 4 hrs post-dosing on day 8; format: organism-based; set-up: dose 40 mg/kg, route oral; details: in vivo
Rattus norvegicus [23] = assay: Prodrug activation in rat liver assessed as free nucleoside level at 40 mg/kg, po administered QD as repeated dose measured at 4 hrs post-dosing on day 8; format: organism-based; set-up: dose 40 mg/kg, route oral; details: in vivo
[24] = Half life in human plasma; format: ADME, cell-free
BXPC-3 = assay: Cytotoxicity against human BxPC3 cells up to 100 uM after 8 days by MTT assay; format: cell-based; details: bxpc-3, 192 h
Rattus norvegicus [25] = assay: Prodrug conversion in rat liver assessed as beta-D-2'-deoxy-2'-alpha-fluoro-2'-beta-C-methylguanosine triphosphate level at 40 mg/kg, po administered QD as repeated dose measured at 4 hrs post-dosing on day 8; format: ADME, organism-based; set-up: dose 40 mg/kg, route oral; details: in vivo
HepG2 [26] = assay: Cytotoxicity against human HepG2 cells up to 100 uM after 8 days by MTT assay; format: cell-based; details: hepg2, 192 h
Rattus norvegicus [27] = assay: Tlast in rat at 40 mg/kg, po administered QD measured after 7 days; format: ADME, organism-based; set-up: dose 40 mg/kg, route oral; details: in vivo, 168 h
[28] = Half life in rat plasma; format: ADME, cell-free
[29] = Half life in rat at 40 mg/kg, po administered QD measured after 7 days; format: ADME, organism-based; set-up: dose 40 mg/kg, route oral; details: in vivo
CCRF-CEM [30] = assay: Mitochondrial toxicity against human CEM cells assessed as decrease in mitochondrial COX2 DNA up to 100 uM after 14 days by RT-PCR analysis; format: cell-based; details: 336 h
[31] = AUC (infinity) in rat at 40 mg/kg, po administered QD measured after 7 days; format: ADME, organism-based; set-up: time infinity, dose 40 mg/kg, route oral; details: plasma
[32] = Tmax in rat at 40 mg/kg, po administered QD measured after 7 days; format: ADME, organism-based; set-up: dose 40 mg/kg, route oral; details: in vivo
[33] = Cmax in rat at 40 mg/kg, po administered QD measured after 1 day; format: ADME, organism-based; set-up: dose 40 mg/kg, route oral; details: in vivo
HepG2 [34] = assay: Mitochondrial toxicity against human HepG2 cells assessed as decrease in ribosomal DNA up to 100 uM after 14 days by RT-PCR analysis; format: cell-based; details: hepg2, 336 h
Hepatitis C virus [35] = assay: Ratio of PSI-352938 EC90 to compound EC90 for Hepatitis C virus genotype 1b infected in clone A cells; format: functional, Hepacivirus hominis

EC90 (Hepatitis C virus [2]): 40 nM
Structure (SMILES): CC(C)Oc1nc(N)nc2c1ncn2[C@@H]1O[C@@H]2COP(=O)(OCc3ccccc3)O[C@H]2[C@@]1(C)F (stereo partly drawn)
CC90 [1]: > 100000 nM

half-life [7]: 4.2 h | half-life [18]: 2.6 h | half-life [19]: 6.3 h | EC90 (Hepatitis C virus [20]): 224 nM | half-life [24]: 11.7 h | half-life [28]: 8.6 h | EC90 (Hepatitis C virus [2]): 50 nM
Structure (SMILES): CC(C)Oc1nc(N)nc2c1ncn2[C@@H]1O[C@@H]2COP(=O)(OC3CCC3)O[C@H]2[C@@]1(C)F (stereo partly drawn)
CC90 [1]: > 100000 nM

EC90 (Hepatitis C virus [20]): 13300 nM
Structure (SMILES): CCCOP1(=O)OC[C@H]2O[C@@H](n3cnc4c(OCC)nc(N)nc43)[C@](C)(F)[C@@H]2O1 (stereo partly drawn)
CC90 [1]: > 100000 nM

EC90 (Hepatitis C virus [2]): 300 nM
Structure (SMILES): CC(C)Oc1nc(N)nc2c1ncn2[C@@H]1O[C@@H]2COP(=O)(OC3CCCCC3)O[C@H]2[C@@]1(C)F (stereo partly drawn)

half-life [7]: > 20 h | half-life [18]: > 20 h | half-life [19]: 16.3 h | EC90 (Hepatitis C virus [20]): 677 nM | half-life [24]: > 24 h | half-life [28]: > 24 h | EC90 (Hepatitis C virus [2]): 740 nM
Structure (SMILES): CC(C)Oc1nc(N)nc2c1ncn2[C@@H]1O[C@@H]2COP(=O)(OC(C)C)O[C@H]2[C@@]1(C)F (stereo partly drawn)
CC90 [1]: > 100000 nM

The remaining lines, values behind:

Structure (SMILES): CC(C)Oc1nc(N)nc2c1ncn2[C@@H]1O[C@@H]2COP(=O)(OC3CCCC3)O[C@H]2[C@@]1(C)F (stereo partly drawn)
Activity (CCRF-CEM [3]): Non-toxic | Tmax (Huh-7 [4]): 72 h | CC90 [1]: > 100000 nM | Activity (Huh-7 [5]): Non-toxic | Drug metabolism (Rattus norvegicus [6]): 20.85 nmol/g | half-life [7]: 15 h | Tmax [8]: 3.67 h | Drug metabolism (Rattus norvegicus [9]): 17.61 nmol/g | Activity (CCRF-CEM [10]): Non-toxic | Activity (HepG2 [11]): Non-toxic | EC90 (Hepatitis C virus [12]): 23 nM | Tmax (Hepatocyte): 24 h | Cmax [13]: 50 ng/mL | Tlast (Rattus norvegicus [14]): 10.7 h | AUC(0-inf) [15]: 770 ng·h/mL | half-life [16]: 2.83 h | AUC(0-t) at 168 h [17]: 170 ng·h/mL | half-life [18]: 9 h | half-life [19]: > 24 h | EC90 (Hepatitis C virus [20]): 184 nM | AUC(0-t) at 24 h [21]: 340 ng·h/mL | Drug metabolism (Rattus norvegicus [22]): 40.5 nmol/g | Drug metabolism (Rattus norvegicus [23]): 7.47 nmol/g | half-life [24]: > 23.4 h | Activity (BXPC-3): Non-toxic | Drug metabolism (Rattus norvegicus [25]): 2.02 nmol/g | Activity (HepG2 [26]): Non-toxic | Tlast (Rattus norvegicus [27]): 8 h | half-life [28]: > 24 h | half-life [29]: 3.32 h | Activity (CCRF-CEM [30]): Non-toxic | AUC(0-inf) [31]: 210 ng·h/mL | Tmax [32]: 2.33 h | EC90 (Hepatitis C virus [2]): 60 nM | Cmax [33]: 80 ng/mL | Activity (HepG2 [34]): Non-toxic

Structure (SMILES): COc1nc(N)nc2c1ncn2[C@@H]1O[C@@H]2COP(=O)(OC3CCCC3)O[C@H]2[C@@]1(C)F (stereo partly drawn)
Activity (CCRF-CEM [3]): Non-toxic | Tmax (Huh-7 [4]): 72 h | CC90 [1]: > 100000 nM | Activity (Huh-7 [5]): Non-toxic | Drug metabolism (Rattus norvegicus [6]): 26.6 nmol/g | half-life [7]: 14 h | Tmax [8]: 1.67 h | Drug metabolism (Rattus norvegicus [9]): 31 nmol/g | Activity (CCRF-CEM [10]): Non-toxic | Activity (HepG2 [11]): Non-toxic | EC90 (Hepatitis C virus [12]): 27 nM | Tmax (Hepatocyte): 8 h | Cmax [13]: 120 ng/mL | Tlast (Rattus norvegicus [14]): 7.33 h | AUC(0-inf) [15]: 690 ng·h/mL | Ratio (Hepatitis C virus [35]): >=10 | half-life [16]: 1.8 h | AUC(0-t) at 168 h [17]: 510 ng·h/mL | half-life [18]: 9.2 h | half-life [19]: 20 h | EC90 (Hepatitis C virus [20]): 102 nM | AUC(0-t) at 24 h [21]: 660 ng·h/mL | Drug metabolism (Rattus norvegicus [22]): 61.37 nmol/g | Drug metabolism (Rattus norvegicus [23]): 21.28 nmol/g | half-life [24]: > 24 h | Activity (BXPC-3): Non-toxic | Drug metabolism (Rattus norvegicus [25]): 3.78 nmol/g | Activity (HepG2 [26]): Non-toxic | Tlast (Rattus norvegicus [27]): 7.33 h | half-life [28]: 22 h | half-life [29]: 0.93 h | Activity (CCRF-CEM [30]): Non-toxic | AUC(0-inf) [31]: 510 ng·h/mL | Tmax [32]: 1.67 h | EC90 (Hepatitis C virus [2]): 37 nM | Cmax [33]: 160 ng/mL | Activity (HepG2 [34]): Non-toxic

Structure (SMILES): COc1nc(N)nc2c1ncn2[C@@H]1O[C@H](COP(=O)(N[C@@H](C)C(=O)OC(C)C)Oc2ccccc2)[C@@H](O)[C@@]1(C)F (stereo partly drawn)
Tmax (Huh-7 [4]): 24 h | half-life [7]: > 20 h | Tmax (Hepatocyte): 8 h | half-life [18]: 16 h | half-life [19]: 0.44 h | half-life [24]: > 24 h | half-life [28]: < 0.02 h

Structure (SMILES): COc1nc(N)nc2c1ncn2[C@@H]1O[C@@H]2COP(=O)(OC3CCCCC3)O[C@H]2[C@@]1(C)F (stereo partly drawn)
CC90 [1]: > 10000 nM | EC90 (Hepatitis C virus [2]): 39 nM
